In PMC2935355 (PLoS ONE, 2010) one finds IC50 data, which are given here for three compounds.

Read-outs that look alike come from different tables or passages of the source.

The assay has as its target T1, ClC-7 (Rattus norvegicus, UniProt P51799).
T1 construct: gene Clcn7; wt rat ClC-7 with C-terminal EGFP fusion; with Ostm1 (mouse)
T1 sequence (P51799 1-803): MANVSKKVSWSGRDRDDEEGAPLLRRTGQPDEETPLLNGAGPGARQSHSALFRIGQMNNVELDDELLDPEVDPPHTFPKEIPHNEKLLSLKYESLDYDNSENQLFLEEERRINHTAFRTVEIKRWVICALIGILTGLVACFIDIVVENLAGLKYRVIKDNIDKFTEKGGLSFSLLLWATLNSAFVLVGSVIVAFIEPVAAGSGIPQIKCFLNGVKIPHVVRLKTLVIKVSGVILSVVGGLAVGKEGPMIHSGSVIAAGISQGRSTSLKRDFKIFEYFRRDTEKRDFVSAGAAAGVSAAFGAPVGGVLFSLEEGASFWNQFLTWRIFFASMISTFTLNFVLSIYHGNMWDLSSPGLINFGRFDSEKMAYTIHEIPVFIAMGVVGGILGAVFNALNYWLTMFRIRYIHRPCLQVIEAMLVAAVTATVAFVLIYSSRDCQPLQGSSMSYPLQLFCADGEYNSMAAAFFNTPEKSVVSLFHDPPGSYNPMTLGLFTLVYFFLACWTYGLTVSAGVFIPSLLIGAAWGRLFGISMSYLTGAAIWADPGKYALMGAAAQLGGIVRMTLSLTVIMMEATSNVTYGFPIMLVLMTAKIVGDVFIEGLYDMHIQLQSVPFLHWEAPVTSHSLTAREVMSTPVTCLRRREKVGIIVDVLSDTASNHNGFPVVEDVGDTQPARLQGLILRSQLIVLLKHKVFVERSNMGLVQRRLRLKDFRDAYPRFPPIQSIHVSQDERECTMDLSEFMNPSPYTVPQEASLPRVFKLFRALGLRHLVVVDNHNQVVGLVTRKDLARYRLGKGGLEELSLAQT
T1 sequence (Q8BGT0 35-338 partner): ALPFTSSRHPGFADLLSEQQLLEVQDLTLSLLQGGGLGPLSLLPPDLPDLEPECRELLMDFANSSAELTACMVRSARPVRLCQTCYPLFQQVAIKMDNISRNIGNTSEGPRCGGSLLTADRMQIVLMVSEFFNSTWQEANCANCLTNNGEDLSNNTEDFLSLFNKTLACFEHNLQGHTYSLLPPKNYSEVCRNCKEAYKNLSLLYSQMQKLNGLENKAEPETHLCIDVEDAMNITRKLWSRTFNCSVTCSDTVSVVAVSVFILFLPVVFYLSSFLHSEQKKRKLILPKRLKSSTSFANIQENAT
Description: SSM-based electrophysiology on lysosomal membrane fraction of CHO cells, […] NaCl jump. Format: biochemical.

As to `O=S(=O)(O)c1cc(N=C=S)ccc1C=Cc1ccc(N=C=S)cc1S(=O)(=O)O` [compound 1, 4,4′-diisothiocyanatostilbene-2,2′-disulfonic acid], the IC50 – broadly, the concentration needed to halve the response being measured – (read-out: IC50) was found to be 39 ± 3.8 µM. On to `O=C(O)c1cc([N+](=O)[O-])ccc1NCCCc1ccccc1` [compound 3, 5-nitro-2-(3-phenylpropylamino)benzoic acid], for which inhibition was half-maximal at 156 ± 7.8 µM (IC50). In the case of NS5818 [compound 2], the IC50 (read-out: IC50) amounted to 52 ± 8 µM.
